Measurements taken from US12421253B2 (Mirati Therapeutics, Inc., priority 2020, dated 2025).
pIC50: −log10 of the molar value.

Assays:
KRas^WT = molecular target: T1, KRas^WT (Homo sapiens, UniProt P01116); assay: KRas binding assay (TR-FRET displacement of Cy5 labelled tracer)
T1 construct: […]; biotin (biotinylated); purchased Accelegan Inc

KRas^G12A = molecular target: T2, KRas^G12A (Homo sapiens, UniProt P01116, G12A); assay: as above
T2 construct: […]; biotin (biotinylated); purchased Accelegan Inc
T2 sequence (P01116 1-169 isoform P01116-2 G12A): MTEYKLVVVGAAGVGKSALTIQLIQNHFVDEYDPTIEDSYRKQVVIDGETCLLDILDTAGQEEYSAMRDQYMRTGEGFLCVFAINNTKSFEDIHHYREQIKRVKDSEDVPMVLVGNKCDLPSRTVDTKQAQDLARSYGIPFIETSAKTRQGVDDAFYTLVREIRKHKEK

KRas^G12D = molecular target: T3, KRas^G12D (Homo sapiens, UniProt P01116, G12D); assay: as above
T3 construct: […]; biotin (biotinylated); purchased Accelegan Inc
T3 sequence (P01116 1-169 isoform P01116-2 G12D): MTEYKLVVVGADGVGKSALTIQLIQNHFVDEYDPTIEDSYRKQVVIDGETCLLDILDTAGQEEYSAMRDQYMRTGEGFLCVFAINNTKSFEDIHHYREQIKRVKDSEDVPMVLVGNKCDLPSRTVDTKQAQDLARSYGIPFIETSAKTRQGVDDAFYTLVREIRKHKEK

KRas^G12R = molecular target: T4, KRas^G12R (Homo sapiens, UniProt P01116, G12R); assay: as above
T4 construct: […]; biotin (biotinylated); purchased Accelegan Inc
T4 sequence (P01116 1-169 isoform P01116-2 G12R): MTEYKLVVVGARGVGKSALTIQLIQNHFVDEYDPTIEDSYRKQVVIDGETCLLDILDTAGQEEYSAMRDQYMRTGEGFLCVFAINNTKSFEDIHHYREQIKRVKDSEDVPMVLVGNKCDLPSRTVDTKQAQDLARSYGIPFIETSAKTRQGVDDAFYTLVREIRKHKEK

KRas^G12S = molecular target: T5, KRas^G12S (Homo sapiens, UniProt P01116, G12S); assay: as above
T5 construct: […]; biotin (biotinylated); purchased Accelegan Inc
T5 sequence (P01116 1-169 isoform P01116-2 G12S): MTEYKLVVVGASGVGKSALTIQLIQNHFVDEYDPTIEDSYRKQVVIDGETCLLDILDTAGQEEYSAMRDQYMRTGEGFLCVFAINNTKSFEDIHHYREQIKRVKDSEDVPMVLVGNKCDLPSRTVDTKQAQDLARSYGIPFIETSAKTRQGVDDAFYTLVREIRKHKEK

KRas^G12V = molecular target: T6, KRas^G12V (Homo sapiens, UniProt P01116, G12V); assay: as above
T6 construct: […]; biotin (biotinylated); purchased Accelegan Inc
T6 sequence (P01116 1-169 isoform P01116-2 G12V): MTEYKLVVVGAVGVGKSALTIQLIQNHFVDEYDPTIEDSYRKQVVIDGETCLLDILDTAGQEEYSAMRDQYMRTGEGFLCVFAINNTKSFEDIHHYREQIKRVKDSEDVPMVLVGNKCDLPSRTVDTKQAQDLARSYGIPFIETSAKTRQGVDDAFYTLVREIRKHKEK

KRas^G12C = KRas^G12C (Homo sapiens, UniProt P01116, G12C); assay: biochemical
Sequence of KRas^G12C (P01116 1-169 isoform P01116-2 G12C): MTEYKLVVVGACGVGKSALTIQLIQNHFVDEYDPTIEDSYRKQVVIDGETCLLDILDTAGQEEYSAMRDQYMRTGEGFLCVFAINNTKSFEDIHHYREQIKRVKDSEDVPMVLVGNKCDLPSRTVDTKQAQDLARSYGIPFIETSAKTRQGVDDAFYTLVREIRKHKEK

KRas^G13D = KRas^G13D (Homo sapiens, UniProt P01116, G13D); assay: biochemical
Sequence of KRas^G13D (P01116 1-169 isoform P01116-2 G13D): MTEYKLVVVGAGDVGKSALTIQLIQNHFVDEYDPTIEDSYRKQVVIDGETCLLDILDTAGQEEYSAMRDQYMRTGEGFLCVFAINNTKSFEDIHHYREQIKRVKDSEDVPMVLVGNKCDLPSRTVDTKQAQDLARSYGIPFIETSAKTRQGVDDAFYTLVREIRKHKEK

KRas^Q61H = KRas^Q61H (Homo sapiens, UniProt P01116, Q61H); assay: biochemical
Sequence of KRas^Q61H (P01116 1-169 isoform P01116-2 Q61H): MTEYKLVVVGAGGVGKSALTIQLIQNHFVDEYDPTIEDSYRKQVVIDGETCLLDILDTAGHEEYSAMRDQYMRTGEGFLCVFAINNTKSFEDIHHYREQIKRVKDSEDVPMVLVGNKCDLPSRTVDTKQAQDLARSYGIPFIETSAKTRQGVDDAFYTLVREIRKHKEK

T1 sequence (P01116 1-169 isoform P01116-2): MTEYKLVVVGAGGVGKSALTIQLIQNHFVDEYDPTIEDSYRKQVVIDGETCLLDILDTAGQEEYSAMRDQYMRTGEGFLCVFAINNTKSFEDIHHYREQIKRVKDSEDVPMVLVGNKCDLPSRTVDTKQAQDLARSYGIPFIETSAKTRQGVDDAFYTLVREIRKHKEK

SMILES | pIC50 (KRas^WT) | pIC50 (KRas^G12A) | pIC50 (KRas^G12D) | pIC50 (KRas^G12R) | pIC50 (KRas^G12S) | pIC50 (KRas^G12V) | pIC50 (KRas^G12C) | pIC50 (KRas^G13D) | pIC50 (KRas^Q61H)
CCc1cccc2cccc(N3CCc4c(nc(OCC56CCCN5CCC6)nc4N4CCCn5nc(N)cc5C4)C3)c12 [Example 10, 5-(7-(8-ethylnaphthalen-1-yl)-2-((tetrahydro-1H-pyrrolizin-7a(5H)-yl)methoxy)-5,6,7,8-tetrahydropyrido[3,4-d]pyrimidin-4-yl)-5,6,7,8-tetrahydro-4H-pyrazolo[1,5-a][1,4]diazepin-2-amine] | 6.77 | 6.77 | 7.17 | 7.13 | 7.00 | 7.09 | 7.09 | 6.43 | 6.54
CCc1cccc2cccc(N3CCc4c(nc(OCC56CCCN5CCC6)nc4N4CCOC5(CCSC5)C4)C3)c12 (stereo not drawn) [Example 130, 9-(7-(8-ethylnaphthalen-1-yl)-2-((tetrahydro-1H-pyrrolizin-7a(5H)-yl)methoxy)-5,6,7,8-tetrahydropyrido[3,4-d]pyrimidin-4-yl)-6-oxa-2-thia-9-azaspiro[4.5]decane] | 6.11 | 5.84 | 5.29 | 5.91 | 5.89 | 5.90 | 5.96 | 5.94 | 6.02
O=C1NC(=O)C2CN(c3nc(OCC45CCCN4CCC5)nc4c3CCN(c3cccc5cccc(Cl)c35)C4)CC12 (stereo not drawn) [Example 79, 5-(7-(8-chloronaphthalen-1-yl)-2-((hexahydro-1H-pyrrolizin-7a-yl)methoxy)-5,6,7,8-tetrahydropyrido[3,4-d]pyrimidin-4-yl)tetrahydropyrrolo[3,4-c]pyrrole-1,3(2H,3aH)-dione] | 6.96 | 6.89 | 7.28 | 6.87 | 7.46 | 7.17 | 6.94 | 6.95 | 6.82

The next lines start with the values.

pIC50 (KRas^WT) | pIC50 (KRas^G12A) | pIC50 (KRas^G12D) | pIC50 (KRas^G12R) | pIC50 (KRas^G12S) | pIC50 (KRas^G12V) | pIC50 (KRas^G12C) | pIC50 (KRas^G13D) | pIC50 (KRas^Q61H) | SMILES
5.84 | 5.93 | 5.41 | 6.11 | 5.78 | 5.78 | 5.88 | 5.84 | 5.77 | CCc1cccc2cccc(N3CCc4c(nc(OCC56CCCN5CCC6)nc4N4CCCC(n5nccn5)C4)C3)c12 (stereo not drawn) [Example 132, 4-(3-(2H-1,2,3-triazol-2-yl)piperidin-1-yl)-7-(8-ethylnaphthalen-1-yl)-2-((tetrahydro-1H-pyrrolizin-7a(5H)-yl)methoxy)-5,6,7,8-tetrahydropyrido[3,4-d]pyrimidine]
6.27 | 6.34 | 5.89 | 6.61 | 6.59 | 6.69 | 6.28 | 6.23 | 6.16 | CCc1cccc2cccc(N3CCc4c(nc(OCC56CCCN5CCC6)nc4N4CC5CC(O)CC4C5)C3)c12 (stereo not drawn) [Example 41, 6-(7-(8-ethylnaphthalen-1-yl)-2-((hexahydro-1H-pyrrolizin-7a-yl)methoxy)-5,6,7,8-tetrahydropyrido[3,4-d]pyrimidin-4-yl)-6-azabicyclo[3.2.1]octan-3-ol]
5.94 | 6.00 | 5.35 | 6.47 | 5.85 | 5.69 | 6.08 | 5.86 | 5.85 | CCc1cccc2cccc(N3CCc4c(nc(OCC56CCCN5CCC6)nc4N4CCCC(c5ccn(C)n5)C4)C3)c12 (stereo not drawn) [Example 100, 7-(8-ethylnaphthalen-1-yl)-4-(3-(1-methyl-1H-pyrazol-3-yl)piperidin-1-yl)-2-((tetrahydro-1H-pyrrolizin-7a(5H)-yl)methoxy)-5,6,7,8-tetrahydropyrido[3,4-d]pyrimidine]
